Experimental data reported in patent publication US5824647A, “Chemotactic wound healing peptides” (priority 1995, dated 1998).
“Also recorded” adds a separate entry of the source.

Tests used:
[1] = system: infant foreskin fibroblasts; test: Collagen production by fibroblasts (modified Peterofsky-Diegelman assay); format: cell-based, human; details: [3H]proline incorporation into collagenase-sensitive protein
Procedure: The peptides of the invention were also found to stimulate collagen production by fibroblasts. Collagen production by fibroblasts in response to the peptides of the present invention was measured utilizing a modified Peterofsky-Diegelman assay. The assay is used to determine whether the peptides of the invention stimulate or inhibit collagen production by fibroblasts.
Low passage (4-12 subpassages) infant foreskin fibroblasts were plated out at a density of 10^5 cells/well in Falcon 3008 multiwell plates in complete maintenance medium containing 10% FCS. After cells reached confluency (72 hr), the medium was changed daily for 3 days, each time being replaced with serum-free maintenance medium containing fresh ascorbic acid. Samples (50 μl) were added to triplicate wells containing 450 μl serum-free MEM supplemented with fresh ascorbic acid and [^3 H]-proline (sp. act. 20 Ci/mmole), but no non-essential amino acids. After an additional 24 hr of culture, supernatants were reacted with protease-free bacterial collagenase to digest all collagen. Similar aliquots of unreacted supernatants and bacterial collagenase-treated supernatants were precipitated with cold 10% trichloroacetic acid (TCA) and were centrifuged for 5 minutes in a Beckman microfuge. Aliquots of the supernatants, after TCA precipitated proteins were pelleted, were placed in vials containing Hydrofluor and then were counted in a scintillation counter. CPM from TCA precipitated supernatants not reacted with bacterial collagenase were subtracted from each culture. The resulting CPM was a reflection of the collagen produced by that culture.
A modified Peterofsky-Diegelmann assay was used to screen peptide samples for their ability to stimulate or inhibit collagen production. Low passage (4-12 subpassages) infant foreskin fibroblast were plated out at a density of 10^5 cells/well of Falcon 3008 multiwell plates in complete maintenance medium containing 10% FCS. After cells reached confluency (72 hr) the medium was changed daily for 3 days, each time being replaced with serum-free maintenance medium containing fresh ascorbic acid. Samples ([…]) were added to triplicate wells containing […] serum free MEM supplemented with fresh ascorbic acid and [^3 H]-proline (sp. act. 20 Ci/mmole), but no non-essential amino acids. After an additional 24 hours of culture, supernatants were reacted with protease-free bacterial collagenase to digest all collagen. Similar aliquots of unreacted supernatants and bacterial collagenase-treated supernatants were precipitated with cold 10% trichloroacetic acid (TCA) and were centrifuged for 5 minutes in a Beckman microfuge. Aliquots of the supernatants, after TCA precipitated proteins were pelleted, were placed in vials containing Hydrofluor and then were counted in a scintillation counter. CPM from TCA precipitated supernatants not reacted with bacterial collagenase were subtracted from each culture. The resulting CPM was a reflection of the collagen produced by that culture.
Collagen production was measured following administration of the various 7-mer peptides 368-374 (SEQ ID NOs. 1-5) to fibroblasts. Peptides […] (SEQ ID NO. 1), LYYIGKT (SEQ ID NO. 2), LYYVGRT (SEQ ID NO. 3), IYYVGRN (SEQ ID NO. 4) and IYYVGRT (SEQ ID NO. 5) were synthesized by the Merrifield technique, purified by HPLC, and tested at different concentrations in the same assay for their ability to stimulate production of collagen in confluent cultures of infant foreskin fibroblasts. Collagen production was measured by incorporation of [^3 H]proline into collagenase-sensitive protein. All samples were tested in triplicate, and values represent the mean of triplicate determinations. Data are expressed as "% stimulation" of collagen production relative to control production in cultures with plain culture medium only added. […]

[2] = system: Human peripheral blood neutrophils; test: Neutrophil chemotaxis in modified Boyden chambers; format: cell-based; details: peptide in lower compartment of modified Boyden chamber
From the text: (§1) Human peripheral blood neutrophils and monocytes, isolated from whole blood using standard techniques may also be used in the chemotaxis assays, in a manner similar to infant foreskin fibroblasts, to measure the chemotactic activity of the peptides towards inflammatory cells. Such cells may also be maintained in supplemented MEM as above, to which 5-10% FCS may be added. When using neutrophils and monocytes, instead of fibroblasts, the polycarbonate filters used in the modified Boyden chambers had pore sizes of 2 and 3 microns, respectively. As above, all assays were carried out in quadruplicate.

fibroblasts = test: HLA-DR, fibroblast effects; format: cell-based; set-up: key: NE = No Effect; details: Table II summary
[3] = system: human peripheral blood monocytes; test: Monocyte chemotaxis in modified Boyden chambers; format: cell-based; details: for monocyte chemotaxis / migration (in words): peptide in lower compartment of modified Boyden chamber; for Mean Monocytes per 20 OIF + SEM: Experiment 2, peptide in lower compartment
From the text: as §1
The following 7-mer peptides (peptides 368-374, corresponding to amino acids 368-374 of human TGF-β1): VYYVGRK (SEQ ID NO. 1), LYYIGKT (SEQ ID NO. 2), LYYVGRT (SEQ ID NO. 3), IYYVGRN (SEQ ID NO. 4) and IYYVGRT (SEQ ID NO. 5) were synthesized by the Merrifield technique, purified by HPLC, and tested at different concentrations in the same assay for their ability to stimulate chemotaxis of human peripheral blood monocytes in vitro modified Boyden chambers.

Substance	collagen production by fibroblasts (in words) [1]	neutrophil chemotaxis / migration (in words) [2]	FIBROBLAST EFFECTS HLA-DR (fibroblasts)	monocyte chemotaxis / migration (in words) [3]	Mean Monocytes per 20 OIF + SEM ([3]; Media added to upper compartment)	Mean Monocytes per 20 OIF + SEM ([3]; TGF-β1 (50 pg/ml) added to upper compartment)	monocyte chemotaxis / migration (in words) ([3]; listed as VYYVGRK)
340-391: synthetic peptide corresponding to sequence 340-391 of TGF-β1; positive chemotactic control (VLALYNQHNPGASAAPCCVPQALEPLPIVYYVGRKPKVEQLSNMIVRSCKCS; printed: Val Leu Ala Leu Tyr Asn Gln His Asn Pro Gly Ala Ser Ala Ala Pro Cys Cys Val Pro Gln Ala Leu Glu Pro Leu Pro Ile Val Tyr Tyr Val Gly Arg Lys Pro Lys Val Glu Gln Leu Ser Asn Met Ile Val Arg Ser Cys Lys Cys Ser) [Peptide 340-391]	stimulated to some degree	migrated in a dose dependent fashion	NE	migrated in a dose dependent fashion	–	–	–
PLPIVYYVGRKPKVE [Peptide 364-378, 15-mer peptide 364-378 of TGF-β1]	stimulated to some degree	induced migration of fibroblasts, monocytes and neutrophils in a dose dependent fashion	NE	induced migration of fibroblasts, monocytes and neutrophils in a dose dependent fashion	–	–	–
VYYVGRK [Peptide 368-374, 7-mer corresponding to amino acids 368-374 of TGF-β1]	stimulated to some degree; also recorded: does stimulate fibroblast chemotaxis and synthesis of collagen and hyaluronic acid	induced migration of fibroblasts, monocytes and neutrophils in a dose dependent fashion	NE	induced migration of fibroblasts, monocytes and neutrophils in a dose dependent fashion	138 ± 8 Monocytes per 20 OIF	50 ± 5 Monocytes per 20 OIF	induced monocyte chemotaxis at all of the concentrations tested
YSKVLALYNQHNPGASAAPC (YSKVLALYNQHNPGASAAPC) [Peptide 337-356]	stimulated to some degree	–	NE	–	–	–	–
